# Assay results taken from EP0434360A1, “New benziodiazepine analogs” (MERCK & CO. INC., priority 1989, dated 1991).
# Read-outs that look alike come from different tables or passages of the source.
# Legend:
# [1] = target: T1, CCK receptor (brain, cerebral cortex) (Cavia porcellus, UniProt H0VZC5); test: CCK Receptor Binding (Brain), inhibition of 125I-CCK-33 binding; parameters: species or system guinea pig
# T1 construct: Cerebral cortex was dissected and used as a receptor source; from tissue; host or cells: guinea pig cerebral cortex membrane homogenate
# T1 sequence (H0VZC5 1-426): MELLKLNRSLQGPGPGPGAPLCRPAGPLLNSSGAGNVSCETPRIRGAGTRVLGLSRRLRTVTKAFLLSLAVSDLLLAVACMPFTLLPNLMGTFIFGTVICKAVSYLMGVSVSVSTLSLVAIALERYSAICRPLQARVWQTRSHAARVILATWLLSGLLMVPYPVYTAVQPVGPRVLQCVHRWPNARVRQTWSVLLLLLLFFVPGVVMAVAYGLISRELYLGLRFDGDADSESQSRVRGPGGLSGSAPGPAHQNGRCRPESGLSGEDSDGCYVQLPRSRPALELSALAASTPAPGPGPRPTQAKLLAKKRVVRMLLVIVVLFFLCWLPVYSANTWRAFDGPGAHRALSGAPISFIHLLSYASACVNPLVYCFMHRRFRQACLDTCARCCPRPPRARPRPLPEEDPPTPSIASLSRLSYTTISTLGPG
# Experimental: 2. CCK Receptor Binding (Brain)
# CCK-33 was radiolabeled and the binding was performed according to the description for the pancreas method with modifications according to Saito et al., J. Neurochem. 37: 483-490, 1981.
# Male Hartley guinea pigs (300-500 g) were sacrificed by decapitation and the brains were removed and placed in ice-cold 50 mM, Tris HCI plus 7.58 g/l Trizma-7.4 (pH 7.4 at 25°C). Cerebral cortex was dissected and used as a receptor source. Each gram of fresh guinea pig brain tissue was homogenized in 10 ml of Tris/Trizma buffer with a Brinkman polytron PT-10. The homogenates were centrifuged at 42,000 g for 15 minutes. Pellets were resuspended in Tris Buffer, centrifuged as above and resuspended in 200 volumes of binding assay buffer (10 mM N-2-hydroxyethyl-piperazine-N'-2-ethane sulfonic acid (HEPES), 5 mM MgCl2, 0.25 mg/ml bacitracin, 1 mM ethylene glycol-bis-(β-aminoethylether-N,N'-tetraacetic acid) (EGTA), and 0.4% bovine serum albumin (BSA)). […] All assays were run in duplicate or triplicate. The reaction mixtures were incubated at 25°C for 2 hours and centrifuged in a Beckman Microfuge (4 minutes) immediately after adding 1 ml of ice-cold incubation buffer. The supernatant was aspirated and discarded, pellets were counted with a Beckman gamma 5000.
# [2] = target: T2, CCK receptor (pancreas) (Rattus norvegicus, UniProt P30551); test: CCK Receptor Binding (Pancreas), inhibition of 125I-CCK-33 binding
# T2 construct: The whole pancreas was dissected free of fat tissue and was homogenized; from tissue; host or cells: rat whole pancreas membrane homogenate
# T2 sequence (P30551 1-444): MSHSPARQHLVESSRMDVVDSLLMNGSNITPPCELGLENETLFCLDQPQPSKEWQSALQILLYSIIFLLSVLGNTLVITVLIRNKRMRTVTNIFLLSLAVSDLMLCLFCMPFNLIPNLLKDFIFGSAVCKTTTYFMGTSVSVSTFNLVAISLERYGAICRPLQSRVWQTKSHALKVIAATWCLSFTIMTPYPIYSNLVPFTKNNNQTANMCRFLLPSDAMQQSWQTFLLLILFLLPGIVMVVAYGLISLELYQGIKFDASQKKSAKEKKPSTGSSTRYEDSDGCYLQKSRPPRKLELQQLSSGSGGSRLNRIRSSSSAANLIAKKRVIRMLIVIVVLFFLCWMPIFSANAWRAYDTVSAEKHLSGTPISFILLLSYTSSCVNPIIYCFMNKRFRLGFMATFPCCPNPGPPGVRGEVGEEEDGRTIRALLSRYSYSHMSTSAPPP
# Experimental: 1. CCK Receptor Binding (Pancreas)
# CCK-33 was radiolabeled with ^1251-Bolton Hunter reagent (2000 Cilmmole) as described by Sankara et al. (J. Biol. Chem. 254: 9349-9351, 1979). Receptor binding was performed according to Innis and Snyder (Proc. Natl. Acad. Sci. 77 6917-6921, 1980) with the minor modification of adding the additional protease inhibitors, phenyl-methane sulfonyl fluoride and o-phenanthroline.
# Male Sprague-Dawley rats (200-350 g) were sacrificed by decapitation. The whole pancreas was dissected free of fat tissue and was homogenized in 20 volumes of ice-cold 50 mM, Tris HCI (pH 7.7 at 25°C) with a Brink- mann Polytron PT 10. The homogenates were centrifuged at 48,000 g for 10 min. Pellets were resuspended in Tris Buffer, centrifuged as above and resuspended in 200 volumes of binding assay buffer (50 mM Tris HCI, pH 7.7 at 25°C, 5 mM dithiothrietol, 0.1 mM bacitracin, 1.2 mM phenyl-methane sulfonyl fluoride and 0.5 mM o-phenanthroline). […] All assays were run in duplicate or triplicate. The reaction mixtures were incubated at 37°C for30 minutes and centrifuged in a Beckman Microfuge (4 minutes) immediately after adding 1 ml of ice-cold incubation buffer. The supernatant was aspirated and discarded, pellets were counted with a Beckman gamma 5000. For Scatchard analysis (Ann. N.Y. Acad. Sci. 51 : 660, 1949), ^125I-CCK-33 was progressively diluted with increasing concentrations of CCK-33.
# [3] = target: T3, gastrin receptor (gastric glands) (Cavia porcellus, UniProt H0VZC5); test: Gastrin Receptor Binding in Guinea Pig Gastric Glands
# T3 construct: The washed guinea pig gastric glands prepared as above were resuspended in 25 ml of standard buffer; from tissue; host or cells: isolated guinea pig gastric mucosal glands (collagenase-dispersed)
# T3 sequence (H0VZC5 1-426): T1 sequence (H0VZC5 1-426)
# [4] = rat pancreas membranes, 125I-CCK-33, 37°C 30 minutes, read-out: IC50(µM) ^125I-CCK Pancreas
# [5] = guinea pig cerebral cortex membranes, 125I-CCK-33, 25°C 2 hours, read-out: IC50(µM) ^125I-CCK Brain
# [6] = guinea pig gastric mucosal glands, 125I-gastrin, 25°C 30 minutes, read-out: IC50(µM) ^125I-Gastrin Gastric Glands
SMILES,IC50 [1] [µM],"IC50 [2, 4] [µM]",IC50 [3] [µM],"IC50 [1, 5] [µM]",IC50 [2] [µM],"IC50 [3, 6] [µM]"
"CN1C(=O)C(NC(=O)Nc2ccc(N)nc2)N=C(c2ccccc2)c2ccccc21 (racemic) [Example 14, (RS)-N-(6-Amino-3-pyridyl)-N'-(2,3-dihydro-l-methyl-2-oxo-5-phenyl-1H-1,4-benzodiazepin-3-yl)-urea]",0.011,2.7,0.4,,,
"CN1C(=O)[C@@H](NC(=O)c2cc3ccccc3n2CCCC(=O)O)N=C(c2ccccc2)c2ccccc21 [Example 7, (S)-4-[-2-(((2,3-Dihydro-1-methyl-2-oxo-5-phenyl-1H-1,4-benzodiazepin-3-yl)amino)carbonyl)-1H-indolyl-1]-bu tanoic acid]",,,,0.23,0.0001,0.24
"Cc1cccc(NC(=O)NC2N=C(c3ccccc3)c3ccccc3N(CCO)C2=O)c1 (stereo not shown) [Example 17, N-(2,3-Dihydro-1-(2-hydroxyethyl)-2-oxo-5-phenyl-1 H-1,4-benzodiazepin-3-yl)-N'-(3-methylphenyl)-urea]",0.012,,0.0038,,0.069,
"CN1C(=O)[C@H](NC(=O)Nc2cccc(C(=O)O)c2)N=C(c2ccccc2)c2ccccc21 [Example 10, (R)-3-((((2,3-Dihydro-l-methyl-2-oxo-5-phenyl-1H-1,4-benzodiazepin-3-yl)amino)carbonyl)amino)benzoic a cid]",0.0039,0.049,0.009,,,
"COc1cccc(NC(=O)NC2N=C(c3ccccc3)c3ccccc3N(CCN(C)C)C2=O)c1 (stereo not shown) [Example 18, N-(2,3-Dihydro-1-(2-dimethylaminoethyl)-2-oxo-5-phenyl-1H-1,4-benzodiazepin-3-yl) -N'-(3-methoxyphenyl)-urea]",0.024,,0.01,,2.6,
"CN1C(=O)C(NC(=O)Nc2cc3c(cn2)[nH]c2ccccc23)N=C(c2ccccc2)c2ccccc21 (racemic) [Example 13, (RS)-N-(2,3-Dihydro-1-methyl-2-oxo-5-phenyl-1H-1,4-benzodiazepin-3-yl)-N'-9H-pyrido(3,4-b)indol-3-yl-urea]",0.071,,,,0.014,6.4
"Cc1cccc(NC(=O)N[C@@H]2N=C(c3ccccc3)c3ccccc3N(C)C2=O)c1 [Example 5, (R)-N-(2,3-Dihydro-1-methyl-2-oxo-5-phenyl-1 H-1,4-benzodiazepin-3-yl)-N'-(3-methylphenyl)-urea]",0.002,,0.0011,,,
"CN1C(=O)C(NC(=O)Nc2cccc(C(=O)O)c2)N=C(c2ccccc2)c2ccccc21 (racemic) [Example 9, (RS)-3-((((2,3-Dihydro-1-methyl-2-oxo-5-phenyl-1 H-1,4-benzodiazepin-3-yl)amino)carbonyl)amino)benzoic acid]",0.0039,,0.009,,0.049,
"CCOC(=O)c1cccc(NC(=O)N[C@@H]2N=C(c3ccccc3)c3ccccc3N(C)C2=O)c1 [Example 19, (R)-3-((((2,3-Dihydro-1-methyl-2-oxo-5-phenyl-1H-1,4-benzodiazepin-3-yl)amino)carbonyl)amino)benzoic acid ethyl ester]",,,,0.026,0.02,0.018
"CN1C(=O)[C@@H](NC(=O)c2cc3ccccc3n2CC(=O)O)N=C(c2ccccc2)c2ccccc21 [Example 6, 3(S)-3-(2-(N-carboxymethylindole)carbonylamino)-1,3-dihydro-1-methyl-5-phenyl-2H-1,4-benzodiazepin-2-one]",,,,0.129,0.00013,0.07
"CN1C(=O)C(NC(=O)c2cc3cc(OCC(=O)O)ccc3[nH]2)N=C(c2ccccc2)c2ccccc21 (stereo not shown) [Example 16, 1,3-Dihydro-3-(5-carboxymethyloxyindole-2-carbonylamino)-1-methyl-5-phenyl-2H-1,4-benzodiazepin 2-one]",,,,0.16,0.023,
"O=C(NC1N=C(c2ccccc2)c2ccccc2N(CCO)C1=O)c1cc2ccccc2[nH]1 (racemic) [Example 12, (RS)-N-(2,3-Dihydro-1-(2-hydroxyethyl)-2-oxo-5-phenyl-1 H-1,4-benzodiazepin-3-yl)-1 H-indole-2-carboxamide]",,,,0.16,0.0024,0.24
